The values below come from ChEMBL document CHEMBL3507680, “University of Dundee, Gates Library screen for HepG2 cell viability”.

The nature of this data set: Human HepG2 cell viability assay in 384 well format. It counts as toxicity, cell-based. Further details: dose 125 nL, time 70.5 hour; concentration not given beside the values. The settings on record: HepG2 cells, read-out: Inhibition.
`Cc1ccc(S(=O)(=O)N2CCC3(CC(C(=O)NCC(C)C)=NO3)C2)cc1` (stereo not drawn): the cytotoxicity at 70.5 h stood at 7.95%. As for `Cc1nccc([C@@H]2C[C@@H]3CCN(Cc4ccco4)C[C@H]3O2)n1`, the cytotoxicity at 70.5 h amounted to 12.2%. On to `O=C(c1ccnnc1)N1C[C@H](OCc2ccccn2)[C@H]2COC[C@H]21`, for which the cytotoxicity at 70.5 h is 4.62%. With `O=C(c1ccncn1)N1C[C@@H]2CN(Cc3cccnc3)CCO[C@@H]2C1` the figure was -12.7%; with `O=C(c1ccccn1)N1CCC2(CC1)COC(COc1cccnc1)C2` (stereo not drawn), -7.52%; with `CC(C)c1nccc([C@@H]2C[C@@H]3CCN(Cc4ccco4)C[C@H]3O2)n1`, 38.3%.

On to `Fc1cnc(N2CCC3(CCCN(c4nncs4)C3)C2)nc1` (stereo not drawn), for which the cytotoxicity at 70.5 h is -6.18%. Then `NC(=O)N1CCCC(C(=O)N2CCc3c(nc(CC4CC4)[nH]c3=O)C2)C1` (stereo not drawn), with -6.32%; and `Cc1nc(CNC(=O)CC2C(=O)NCCN2Cc2ccccc2C)n[nH]1` (stereo not drawn), with -0.629%; and `CCCc1cc(C(=O)N(Cc2cccnc2)Cc2cccnc2)[nH]n1`, with -7.25%.

For the compound `O=C(c1ccccn1)N1CCC(c2nccn2Cc2ccncc2)CC1`, the cytotoxicity at 70.5 h is -14.4%. With `Cc1nc(CC(=O)N2CCCC2c2nc(C(C)C)no2)cs1` (stereo not drawn), the cytotoxicity at 70.5 h is -6.42%. As for `CCN(C)CC(=O)N1CCN(Cc2ccccc2)[C@@H]2CS(=O)(=O)C[C@@H]21`, the cytotoxicity at 70.5 h was determined as 2.14%. With `OC[C@H]1CN(C2Cc3ccccc3C2)C[C@H]1CN1CCC(O)CC1` the figure was -7.74%; with `c1csc(-c2noc(COCC3CCCO3)n2)c1` (stereo not drawn), 1.87%. With `Cc1c(CNCCCOc2cccnc2)c2ccccc2n1CC(N)=O` the figure was 5.45%. On to `COc1ccc(OCC2CCCN(c3nc(CO)cs3)C2)cc1` (stereo not drawn), for which the cytotoxicity at 70.5 h is -9.63%. With `CN(Cc1ccc(CCC(C)(C)O)cc1)Cc1cccnc1` the figure was -11.5%; with `NC(=O)CN1CCC(C(=O)NCCc2nc(-c3ccccc3)cs2)CC1`, -3.75%; with `Cc1nnsc1CN1CC[C@@](O)(C2CCC2)[C@H](C)C1`, -7.08%.

Turning to `CCn1nc(CC(C)C)cc1C(=O)N1CC(N2CCCCC2C)C1` (stereo not drawn), the cytotoxicity at 70.5 h is -2.38%. Regarding `COc1cccc2c1OCC(CNC(=O)Cc1csc(C(C)=O)c1)C2` (stereo not drawn), the cytotoxicity at 70.5 h is 14.4%. Take `Cc1cc(C)c(C(=O)N2CCCC(C(=O)CCc3ccccc3)C2)cn1` (stereo not drawn): the cytotoxicity at 70.5 h is -3.58%.

`N[C@H]1CN(C(=O)c2ccc(Cl)cc2O)C[C@@H]1C1CC1`: the cytotoxicity at 70.5 h was -3.15%. With `O=C1Nc2ccccc2NC12CCN(Cc1nnc(C3CC3)o1)CC2` the figure was -5.39%; with `COc1cccc(C(=O)N2C[C@@H](CN(C)CCO)[C@@H](CO)C2)c1C`, 23.8%; with `Cc1cc(C)n(CC2(CNC(=O)C(c3ccc(F)cc3)N(C)C)CC2)n1` (stereo not drawn), -1.88%. Then `Cc1cc(NC(C)Cc2cccnc2)n2nccc2n1` (stereo not drawn), with -12%; and `CN(CCc1ccccc1)Cc1cc(C(=O)N2CCSCC2)no1`, with -3.85%.

Take `CCn1nccc1C(=O)N1CCCCC1CCc1ccc(O)cc1` (stereo not drawn): the cytotoxicity at 70.5 h is 11%.

For the compound `CCc1ccc(CN(C)C(=O)C(c2ccccc2F)N(C)C)nc1` (stereo not drawn), the cytotoxicity at 70.5 h was -7.7%. On to `Cc1nc2c(c(N3CCC(O)(Cn4ccnc4)CC3)n1)CCNCC2`, for which the cytotoxicity at 70.5 h is -1.99%. Turning to `Cc1nnsc1CNC(=O)c1ccc2c(c1)nc(N1CCOCC1)n2C`, the cytotoxicity at 70.5 h was -12.9%.

Turning to `CSCC(=O)N1CCc2[nH]nc(-c3ccc4c(c3)OCO4)c2C1`, the cytotoxicity at 70.5 h was determined as 0.0699%. Then `COCc1noc(Cn2ccc3ccccc3c2=O)n1`, with -5.61%. With `Cc1cccc(C(=O)N2CCCCC2c2ccc(CN(C)C)cc2)c1` (stereo not drawn) the figure was -8.71%. As to `O=C(NC1CCCC1)N1C[C@H]2CN(c3ccncc3)C[C@@]2(C(=O)O)C1`, the cytotoxicity at 70.5 h was determined as 14.8%. Then `O=C(NCc1cccc(F)c1F)c1cc(CN2CCCC(O)C2)on1` (stereo not drawn), with 4.85%. `COCCN1CCCC2(CCN(c3cccc(C(F)(F)F)n3)C2)C1=O` (stereo not drawn): the cytotoxicity at 70.5 h is -9.08%. Consider `Cc1nc2c(c(=O)[nH]1)CN(C(=O)CC[C@@H]1CCCN3CCCC[C@H]13)C2`, for which the cytotoxicity at 70.5 h was 24.5%. With `COC1CCN(S(=O)(=O)N2C[C@H](c3ccccc3)[C@@H](N)C2)CC1` the figure was -2.79%. Then `COc1cc(C(=O)NCC2CCCN(Cc3ccco3)C2)ccn1` (stereo not drawn), with 16.1%; and `Cc1nn(C)c2ncnc(N3CCC(O)(CN4CCCC4)CC3)c12`, with -6.34%; and `CC[S+]([O-])CCc1nc(CC(C)C)nn1-c1ccc2c(c1)OCCO2` (stereo not drawn), with 5.5%. Then `COc1ccccc1N1CCN(C(=O)CSC(C)C)C(C)C1` (stereo not drawn), with -3.04%; and `Cc1noc(C)c1CCCNC(=O)C1CCN(C(C)C)CC1`, with -7.17%. On to `O=C(O)CC[C@@H]1CN(c2ncnc3[nH]ccc23)CC[C@@H]1N1CCOCC1`, for which the cytotoxicity at 70.5 h is -4.6%. With `Cc1nc2ncccn2c1C(=O)N1CCc2[nH]cnc2C1` the figure was -1.79%; with `Cn1cc(CN2CCC(Cn3cc(-c4ccccc4)nn3)CC2)cn1`, -4.28%; with `O=S(=O)(c1cccnc1)N1CCCCC1CCN1CCOCC1` (stereo not drawn), 23.1%.

`Cn1ncc2c1NC(=O)CC2c1cc2c(cc1Cl)OCO2` (stereo not drawn): the cytotoxicity at 70.5 h was 17.7%. Then `Cc1nc(CN2CCC3(CCCO3)CCC2=O)no1` (stereo not drawn), with -3.41%; and `CN(CCc1cn[nH]c1)Cc1nc(Cc2cccc(C(F)(F)F)c2)no1`, with 3.03%; and `Cc1ccc(Oc2ncccc2CNC2CCOCC2)cn1`, with -7.51%. In the case of `C[C@@H]1CN(c2ccc(Cl)cn2)C[C@@]1(O)C1CC1`, the cytotoxicity at 70.5 h was -3.66%. Then `Cc1n[nH]c(C)c1CCC(=O)NCC1CCOc2ccccc2C1` (stereo not drawn), with 12.2%; and `O=C(NCC1COCCO1)c1csc(Cc2ccccc2)n1` (stereo not drawn), with -4.7%; and `Cn1ncc2c(NC3CCCN(C(=O)C4CC4)C3)nc(C(C)(C)C)nc21` (stereo not drawn), with 2.96%. On to `Cc1ccc(C(=O)N(Cc2cccnc2)C[C@@H]2CCC(=O)N2)s1`, for which the cytotoxicity at 70.5 h came to 28%. Turning to `CO[C@H]1[C@@H]2CC[C@H]1CN(c1nc(C)nc3sccc13)C2`, the cytotoxicity at 70.5 h turned out to be 6.45%.

`COc1cccc2c1OCC(C(=O)N1Cc3ccccc3C1)C2` (stereo not drawn): the cytotoxicity at 70.5 h is -1.1%. With `CCCc1cc(CN(C)C2CSCCSC2)n[nH]1` the figure was -6.5%. With `CN(C)C(=O)CCN1CC(c2ccccc2)(c2ccccc2)CCC1=O` the figure was 4.06%; with `COCc1noc(-c2ccc(N(C)Cc3nccs3)nc2)n1`, -6.18%; with `O=C1CC2(CCN(C(=O)c3cccc(Cl)c3)CC2)CN1`, -7.17%. Turning to `CCC(=O)N1CCN(S(=O)(=O)c2cccc(F)c2)[C@H]2CS(=O)(=O)C[C@H]21`, the cytotoxicity at 70.5 h is -13.7%. With `O=C(c1ncccn1)N1CCC2(CC1)COC(COc1ccccn1)C2` (stereo not drawn) the figure was 10.9%. With `c1coc(CN2CCc3nnc(COc4cncnc4)n3CC2)c1` the figure was -13.1%.
